From patent US20260216169A1, “NAPHTHYLAMIDE COMPOUND, AND PREPARATION METHOD THEREFOR AND USE THEREOF” (SHENZHEN CHIPSCREEN BIOSCIENCES CO., LTD., priority 2022, published 2026)

How the values were obtained:
[1] = Brain permeation assay in mice; type: in vivo; conditions: B/C, mouse, oral; female mice, 5 mg/kg intragastric, 4 h after administration; read-out: Brain permeation (ratio of compound concentration in brain tissue to concentration in plasma)
Description: The objective of this example was to test whether the compounds of the present disclosure are able to cross the blood-brain barrier (BBB). The compounds of the present disclosure were dissolved in a vehicle containing 5% dimethyl sulfoxide, 60% 1,3-propanediol, and 35% purified water, and intragastrically administered to B/C female mice aged 6 weeks (purchased from Guangdong Medical Laboratory Animal Center) at 5 mg/kg. The animals were sacrificed 4 h after the administration, and blood and brain tissue samples were collected. The blood samples were anticoagulated with K2-EDTA and centrifuged at 5000 rpm for 5 min to separate plasma. The brain tissue samples were accurately weighed and homogenized with a certain amount of phosphate-buffered saline (PBS) solution, and the biological samples were stored at −80° C. before analysis. After sample extraction, the compound concentration was determined using a liquid chromatography-tandem mass spectrometry (LC-MS/MS) system. Brain permeation was defined as the ratio of the compound concentration in brain tissue to the concentration in plasma.

VEGFR2 = target: T1, VEGFR2 (Homo sapiens, UniProt P35968); experiment: HTRF KinEASE test against VEGFR2, reported as relative selectivity IC50-VEGFR2/IC50-Aurora B; type: biochemical; conditions: ratio of IC50 against VEGFR2 to IC50 against Aurora B
T1 construct: purchased Carna 08-191
Description: (§1) Preparation of working solutions of compounds in DMSO with gradient concentrations: 0.2 mM solutions of the compounds in DMSO were prepared and serially diluted with DMSO to form working solutions with 10 gradient concentrations (corresponding to final compound concentrations of 1000 nM, 300 nM, 100 nM, 30 nM, 10 nM, 3 nM, 1 nM, 0.3 nM, 0.1 nM, and 0.03 nM in the reaction system).
(§2) Tests of inhibitory activity against Aurora B kinase and VEGFR2: The half maximal inhibitory concentrations (IC50) of the compounds against Aurora B kinase and VEGFR2 were determined using HTRF KinEASE-TK kit (Cisbio, Cat #62TKOPEC) and HTRF KinEASE-STK kit (Cisbio, Cat #61ST2BLE). A 2× kinase & Metal solution (Aurora B/Cat #05-102 and VEGFR2/Cat #08-191, both purchased from Carna) and a 2× Substrate & ATP solution (for Aurora B and VEGFR2, substrates S2 and TK were used, respectively) were prepared according to the kit instructions. The working solutions of the test compounds with gradient concentrations were added to a 384-well plate at 25 nL/well, and 2.5 μL of the 2× kinase & Metal solution was added to each well. The plate was sealed with a plate-sealing film, well shaken, centrifuged, and then incubated at 25° C. for 10 min. Then, the 2× Substrate & ATP solution was added at 2.5 μL/well, and the plate was incubated again at 25° C. for 30 min. Finally, a 2× XL665 & Antibody kinase detection reaction solution was added at 5 μL/well. After the plate was incubated at 25° C. for 60 min, the fluorescence signals at wavelengths of 665 nm and 620 nm in each well were measured by a microplate reader.
(§3) The 665 nm/620 nm fluorescence signal ratio (X) of each well was calculated. With the compound-free well as a negative control (Y) and the enzyme-free well as a positive control (Z), the inhibition rate of the compound in each test well against the corresponding kinase was calculated using the formula: inhibition (%)=100%−(X−Z)/(Y−Z)×100%, and the half maximal inhibitory concentration (IC50) of each compound against the corresponding kinase was calculated by GraphPad 7.0 software.

Aurora B kinase = Aurora B kinase (Homo sapiens, UniProt Q96GD4); experiment: HTRF KinEASE test of inhibitory activity against Aurora B kinase; type: biochemical; parameters: purchased Carna 05-102; conditions: Carna kinase, substrate S2
Description: as §1, §2, §3

Molt-4 cells = experiment: Effects on tumor cell cycle, PI staining and flow cytometry; type: cell-based, human; conditions: 48 h
Source text: When the activity of Aurora B kinase is inhibited in tumor cells, the arrangement and separation of chromosomes are blocked, leading to cytokinesis failure and the formation of tetraploid or polyploid cells. Moreover, severe genomic instability and mitotic catastrophe result in apoptosis. The intracellular DNA content can be mapped with propidium iodide (PI), a fluorescent dye that specifically binds to nucleic acid, so that cell states can be distinguished into sub-G0/G1 (apoptosis), G0/G1, S, G2/M (tetraploid), and polyploid states.
Experimental process: Molt-4 cells (human acute lymphoblastic leukemia cells, CRL-1582) were purchased from the American Type Culture Collection (ATCC). Molt-4 cells in the logarithmic growth phase were collected from suspension culture and counted. The cells were seeded into a 6-well plate at 10^6 cells/well and cultured overnight under normal conditions. The test compounds were prepared as 1 mM and 3 mM solutions in DMSO, and the solutions in DMSO were diluted 50-fold with culture medium. Finally, the above solutions were added to the culture system in a volume ratio of 1:19, achieving a final compound concentration of 1 μM or 3 μM in each well. After 48 h of incubation, the cells were collected by centrifugation. Each cell sample was resuspended in 300 μL of PBS, and the suspension was added dropwise to 700 μL of pre-cooled absolute ethanol. Then the mixture was gently inverted several times for thorough mixing to complete cell collection and fixation. The samples were left to stand at 4° C. for more than 12 h and then analyzed by flow cytometry.
A working dye solution was prepared by homogeneously mixing PBS, a 10 mg/mL PI stock solution, and a 10 mg/mL RNase A solution in a ratio of 1000:5:2. The fixed cell samples were centrifuged at 4° C. and 1000 rpm for 10 min. The supernatants were completely removed using a pipette, and the cells were washed twice with PBS and resuspended in the above working dye solution at […]. After incubation in a dark place at 37° C. for 30 min, the cells were filtered using a 200-mesh stainless steel strainer, and the filtrate was loaded onto a flow cytometer for cell cycle analysis (10,000 cells counted per sample).
Histograms showing DNA contents were obtained from the flow cytometry analysis, and the cell cycle distribution in each sample was analyzed using the flow cytometry data analysis software FlowJo. The mean (X) and standard deviation (SD) were calculated, and data were represented as X±SD. The apoptosis and the proportions of tetraploid and polyploid cells after Molt-4 cells were treated with different doses of the test compounds are shown in Table 3 below.

Chain of Aurora B kinase (Q96GD4 whole entry): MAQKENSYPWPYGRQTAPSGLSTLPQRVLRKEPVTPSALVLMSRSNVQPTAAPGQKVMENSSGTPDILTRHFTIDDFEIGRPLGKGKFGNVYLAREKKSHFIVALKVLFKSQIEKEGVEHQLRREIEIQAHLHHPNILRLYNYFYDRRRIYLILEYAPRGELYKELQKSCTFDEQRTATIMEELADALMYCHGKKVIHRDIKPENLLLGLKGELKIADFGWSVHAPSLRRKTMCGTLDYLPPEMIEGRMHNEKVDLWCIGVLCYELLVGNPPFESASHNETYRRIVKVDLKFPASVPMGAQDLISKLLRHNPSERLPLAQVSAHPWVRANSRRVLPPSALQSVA
Chain of Aurora B kinase (Q9NQS7 803-916 partner limits assumed): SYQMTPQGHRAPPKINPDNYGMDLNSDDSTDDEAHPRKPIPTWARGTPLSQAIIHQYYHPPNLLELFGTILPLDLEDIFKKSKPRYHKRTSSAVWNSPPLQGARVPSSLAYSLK
T1 sequence (P35968 790-1356 limits assumed): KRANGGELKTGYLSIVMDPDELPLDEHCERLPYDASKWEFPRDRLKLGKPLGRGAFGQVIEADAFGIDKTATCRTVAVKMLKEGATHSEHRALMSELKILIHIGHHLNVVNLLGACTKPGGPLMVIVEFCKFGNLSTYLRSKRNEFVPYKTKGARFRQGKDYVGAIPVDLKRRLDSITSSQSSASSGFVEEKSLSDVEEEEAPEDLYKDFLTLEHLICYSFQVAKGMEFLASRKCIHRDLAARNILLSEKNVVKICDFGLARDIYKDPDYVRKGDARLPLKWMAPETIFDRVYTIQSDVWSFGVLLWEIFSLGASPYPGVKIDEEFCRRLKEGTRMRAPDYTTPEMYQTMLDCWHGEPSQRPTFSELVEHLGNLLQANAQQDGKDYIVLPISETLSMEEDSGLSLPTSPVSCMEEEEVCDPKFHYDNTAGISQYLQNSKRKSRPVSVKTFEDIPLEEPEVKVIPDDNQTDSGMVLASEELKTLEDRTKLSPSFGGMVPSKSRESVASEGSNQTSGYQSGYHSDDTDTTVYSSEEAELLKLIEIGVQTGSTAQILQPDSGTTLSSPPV

| SMILES | Selectivity for Aurora B IC50-VEGFR2/IC50-Aurora B (VEGFR2) | IC50 (Aurora B kinase) [nM] | further results |
| --- | --- | --- | --- |
| CCOc1ccc2c(Oc3ccc4c(C(=O)Nc5ccccc5N)cccc4c3)ccnc2c1 [Compound I-1] |  |  | Kp at 4 h [1]: 0.73 |
| CC(C)Oc1ccc2c(Oc3ccc4c(C(=O)Nc5ccccc5N)cccc4c3)ccnc2c1 [Compound I-7] | 0.17 | 417 |  |
| CCCOc1ccc2c(Oc3ccc4c(C(=O)Nc5ccccc5N)cccc4c3)ccnc2c1 [Compound I-11] | 0.78 | 33.9 |  |
| CCCCOc1ccc2c(Oc3ccc4c(C(=O)Nc5ccccc5N)cccc4c3)ccnc2c1 [Compound I-13] | 0.27 | 127 |  |
| CCOc1ccc2c(Oc3ccc4c(C(=O)Nc5cc(F)ccc5N)cccc4c3)ccnc2c1 [Compound I-15] |  |  | Kp at 4 h [1]: 0.76 |
| CCOc1cc(F)c2c(Oc3ccc4c(C(=O)Nc5cc(F)ccc5N)cccc4c3)ccnc2c1 [Compound I-20] |  |  | Kp at 4 h [1]: 0.67 |
| O=C(NC1CC(F)(F)C1)c1cccc2cc(Oc3ccnc4cc(OCCOC(F)F)ccc34)ccc12 [Compound I-21] | 12.27 | 2.12 |  |
| COCCOc1ccc2c(Oc3ccc4c(C(=O)NC5CC(F)(F)C5)cccc4c3)ccnc2c1 [Compound I-23] | 9.49 | 1.24 |  |
| COCCOc1ccc2c(Oc3ccc4c(C(=O)NC5CC6(COC6)C5)cccc4c3)ccnc2c1 [Compound I-24] | 109.61 | 1.7 |  |
| COCCOc1ccc2c(Oc3ccc4c(C(=O)NC5CC6(CCC6)C5)cccc4c3)ccnc2c1 [Compound I-25] | 38.05 | 1.55 |  |
| COCCOc1ccc2c(Oc3ccc4c(C(=O)NC5CC(F)C5)cccc4c3)ccnc2c1 (stereo not drawn) [Compound I-27] | 10.23 | 0.896 |  |
| O=C(NC1CC(F)(F)C1)c1cccc2cc(Oc3ccnc4cc(OCCF)ccc34)ccc12 [Compound I-33] | 376.79 | 2.65 |  |
| O=C(NC1CCCCC1)c1cccc2cc(Oc3ccnc4cc(OCCF)ccc34)ccc12 [Compound I-35] | 9.55 | 5.26 |  |
| O=C(NC1CC(F)(F)C1)c1cccc2cc(Oc3ccnc4cc(OCC(F)F)ccc34)ccc12 [Compound I-41] | 127.51 | 2.22 |  |
| CN(C)CCOc1ccc2c(Oc3ccc4c(C(=O)NC5CC(F)(F)C5)cccc4c3)ccnc2c1 [Compound I-42] | 13.9 | 3.86 |  |

Further lines, with some results ahead:

| Selectivity for Aurora B IC50-VEGFR2/IC50-Aurora B (VEGFR2) | IC50 (Aurora B kinase) [nM] | SMILES | further results |
| --- | --- | --- | --- |
| 49.6 | 2.83 | CCOc1ccc2c(Oc3ccc4c(C(=O)Nc5ccc(F)cc5N)cccc4c3)ccnc2c1 [Compound I-5] |  |
| 18.64 | 3.18 | CCOc1ccc2c(Oc3ccc4c(C(=O)Nc5ccc(F)c(F)c5N)cccc4c3)ccnc2c1 [Compound I-6] |  |
| 13.34 | 3.52 | COc1ccc2c(Oc3ccc4c(C(=O)Nc5cc(F)c(F)c(F)c5N)cccc4c3)ccnc2c1 [Compound I-10] |  |
| 5.12 | 19 | CCCOc1ccc2c(Oc3ccc4c(C(=O)Nc5ccc(F)cc5N)cccc4c3)ccnc2c1 [Compound I-12] |  |
| 18.84 | 53.1 | CCCCOc1ccc2c(Oc3ccc4c(C(=O)Nc5ccc(C)cc5N)cccc4c3)ccnc2c1 [Compound I-14] |  |
| 8.16 | 4.01 | CCOc1cc(F)c2c(Oc3ccc4c(C(=O)Nc5ccccc5N)cccc4c3)ccnc2c1 [Compound I-17] | Kp at 4 h [1]: 0.6 |
| 9.75 | 6.89 | CCOc1cc(F)c2c(Oc3ccc4c(C(=O)Nc5cccc(F)c5N)cccc4c3)ccnc2c1 [Compound I-18] |  |
| 9.08 | 5.62 | CCOc1cc(F)c2c(Oc3ccc4c(C(=O)Nc5ccc(F)c(F)c5N)cccc4c3)ccnc2c1 [Compound I-19] |  |
| 9.68 | 4.12 | Nc1c(F)cccc1NC(=O)c1cccc2cc(Oc3ccnc4cc(OCCOC(F)F)cc(F)c34)ccc12 [Compound I-28] |  |
| 8.07 | 2.01 | Nc1c(NC(=O)c2cccc3cc(Oc4ccnc5cc(OCCF)ccc45)ccc23)ccc(F)c1F [Compound I-32] |  |
| 7.75 | 2.92 | COc1cc(F)c2c(Oc3ccc4c(C(=O)Nc5ccc(F)c(Cl)c5N)cccc4c3)ccnc2c1 [Compound I-36] |  |
| 14.19 | 2.63 | COc1cc(F)c2c(Oc3ccc4c(C(=O)Nc5ccc(F)c(F)c5N)cccc4c3)ccnc2c1 [Compound I-37] | Apoptosis (%) DNA < 2N (Molt-4 cells; dose 1 μM): 22.55 ± 0.21%; Polyploid (%) DNA > 4N (Molt-4 cells; dose 1 μM): 55.25 ± 5.02%; Tetraploid (%) DNA = 4N (Molt-4 cells; dose 1 μM): 4.68 ± 3.46%; Total (apoptosis + tetraploid + polyploid) (Molt-4 cells; dose 1 μM): 82.48; Apoptosis (%) DNA < 2N (Molt-4 cells; dose 3 μM): 23.75 ± 2.33%; Polyploid (%) DNA > 4N (Molt-4 cells; dose 3 μM): 53.75 ± 4.17%; Tetraploid (%) DNA = 4N (Molt-4 cells; dose 3 μM): 5.75 ± 3.15%; Total (apoptosis + tetraploid + polyploid) (Molt-4 cells; dose 3 μM): 83.25; Kp at 4 h [1]: 0.6 |
| 12.14 | 6.71 | CCOc1ccc2c(Oc3ccc4c(C(=O)Nc5cc(F)c(F)c(F)c5N)cccc4c3)ccnc2c1 [Compound I-44] |  |
